Experiments:
Experiment in all cases: relative viability (nuclei count vs DMSO), 5 days (fraction); higher = more cells survive
[1] = system: NCI-H2170
How it was run: (§1)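 Lung cancer cell lines in 1536-well plates got either a single drug or a fixed anchor-drug dose together with five library-drug doses (not always all listed) in √10 steps, by pin tool, on the day after seeding. Nuclei were counted after 5 days, and relative viability is the treated-to-vehicle ratio of nuclei counts. Values are medians of duplicate plates.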

[2] = system: NCI-H2405
How it was run: as §1

[3] = system: ChaGo-K-1
How it was run: as §1

[4] = system: NCI-H3122
How it was run: as §1

[5] = system: NCI-H1734
How it was run: as §1

[6] = system: NCI-H1793
How it was run: as §1

[7] = system: NCI-H2228
How it was run: as §1

[8] = system: UMC-11
How it was run: as §1

[9] = system: NCI-H1395
How it was run: as §1

[10] = system: RERF-LC-KJ
How it was run: as §1

[11] = system: CAL-12T
How it was run: as §1

[12] = system: LC-2-ad
How it was run: as §1

[13] = system: NCI-H1651
How it was run: as §1

[14] = system: NCI-H1755
How it was run: as §1

[15] = system: NCI-H460
How it was run: as §1

[16] = system: LU99A
How it was run: as §1

[17] = system: ABC-1
How it was run: as §1

[18] = system: LOU-NH91
How it was run: as §1

[19] = system: HCC-366
How it was run: as §1

[20] = system: PC-3 [JPC-3]
How it was run: as §1

[21] = system: EPLC-272H
How it was run: as §1

[22] = system: HCC-78
How it was run: as §1

[23] = system: NCI-H2087
How it was run: as §1

[24] = system: NCI-H1944
How it was run: as §1

Q: For `COc1cc(N2CCC(C(N)=O)CC2)ccc1Nc1nc(N)c(Cl)c(Nc2ccccc2S(=O)(=O)C(C)C)n1` [HG-5-88-01] + CS(=O)(=O)N1CCN(Cc2cc3nc(-c4cccc5[nH]ncc45)nc(N4CCOCC4)c3s2)CC1 [Pictilisib] (partner 1 µM), which relative viability ([1]; first compound 0.04 µM) is on record?
A: 0.269

Q: What about the relative viability ([1]; first compound 0.1265 µM) of the same molecule?
A: 0.33

Q: And the relative viability ([1]; first compound 0.4 µM)?
A: 0.28

Q: What about the relative viability ([1]; first compound 1.265 µM) of the same molecule?
A: 0.26

Q: And the relative viability ([1]; first compound 4 µM)?
A: 0.261

Q: And the relative viability ([2]; first compound 0.04 µM)?
A: 0.286

Q: And the relative viability ([2]; first compound 0.1265 µM)?
A: 0.465

Q: What about the relative viability ([2]; first compound 0.4 µM) of the same molecule?
A: 0.363

Q: And the relative viability ([2]; first compound 1.265 µM)?
A: 0.329

Q: What about the relative viability ([2]; first compound 4 µM) of the same molecule?
A: 0.451

Q: What about the relative viability ([3]; first compound 0.04 µM) of the same molecule?
A: 0.794

Q: What about the relative viability ([3]; first compound 0.1265 µM) of the same molecule?
A: 0.785

Q: What about the relative viability ([3]; first compound 0.4 µM) of the same molecule?
A: 0.679

Q: What about the relative viability ([3]; first compound 1.265 µM) of the same molecule?
A: 0.863

Q: What about the relative viability ([3]; first compound 4 µM) of the same molecule?
A: 0.556

Q: And the relative viability ([4]; first compound 0.04 µM)?
A: 0.252

Q: What about the relative viability ([4]; first compound 0.1265 µM) of the same molecule?
A: 0.174

Q: What about the relative viability ([4]; first compound 0.4 µM) of the same molecule?
A: 0.2

Q: What about the relative viability ([4]; first compound 1.265 µM) of the same molecule?
A: 0.172

Q: And the relative viability ([4]; first compound 4 µM)?
A: 0.173

Q: And the relative viability ([5]; first compound 0.04 µM)?
A: 0.405

Q: What about the relative viability ([5]; first compound 0.1265 µM) of the same molecule?
A: 0.423

Q: And the relative viability ([5]; first compound 0.4 µM)?
A: 0.411

Q: What about the relative viability ([5]; first compound 1.265 µM) of the same molecule?
A: 0.358

Q: And the relative viability ([5]; first compound 4 µM)?
A: 0.476

Q: And the relative viability ([6]; first compound 0.1265 µM)?
A: 0.336

Q: And the relative viability ([6]; first compound 0.4 µM)?
A: 0.3

Q: What about the relative viability ([6]; first compound 1.265 µM) of the same molecule?
A: 0.426

Q: What about the relative viability ([6]; first compound 4 µM) of the same molecule?
A: 0.308

Q: And the relative viability ([7]; first compound 0.04 µM)?
A: 0.215

Q: And the relative viability ([7]; first compound 0.1265 µM)?
A: 0.177

Q: And the relative viability ([7]; first compound 0.4 µM)?
A: 0.248

Q: What about the relative viability ([7]; first compound 1.265 µM) of the same molecule?
A: 0.144

Q: What about the relative viability ([7]; first compound 4 µM) of the same molecule?
A: 0.157

Q: What about the relative viability ([8]; first compound 0.04 µM) of the same molecule?
A: 0.506

Q: What about the relative viability ([8]; first compound 0.1265 µM) of the same molecule?
A: 0.937

Q: And the relative viability ([8]; first compound 0.4 µM)?
A: 0.692

Q: What about the relative viability ([8]; first compound 1.265 µM) of the same molecule?
A: 0.815

Q: And the relative viability ([8]; first compound 4 µM)?
A: 0.49

Q: And the relative viability ([9]; first compound 0.04 µM)?
A: 0.582

Q: And the relative viability ([9]; first compound 0.1265 µM)?
A: 0.587

Q: And the relative viability ([9]; first compound 0.4 µM)?
A: 0.598

Q: What about the relative viability ([9]; first compound 1.265 µM) of the same molecule?
A: 0.584

Q: What about the relative viability ([9]; first compound 4 µM) of the same molecule?
A: 0.523

Q: What about the relative viability ([10]; first compound 0.04 µM) of the same molecule?
A: 0.588

Q: And the relative viability ([10]; first compound 0.1265 µM)?
A: 0.714

Q: And the relative viability ([10]; first compound 0.4 µM)?
A: 0.498

Q: And the relative viability ([10]; first compound 1.265 µM)?
A: 0.481

Q: And the relative viability ([10]; first compound 4 µM)?
A: 0.412

Q: What about the relative viability ([11]; first compound 0.04 µM) of the same molecule?
A: 0.321

Q: And the relative viability ([11]; first compound 0.1265 µM)?
A: 0.354

Q: And the relative viability ([11]; first compound 0.4 µM)?
A: 0.418

Q: What about the relative viability ([11]; first compound 1.265 µM) of the same molecule?
A: 0.296

Q: And the relative viability ([11]; first compound 4 µM)?
A: 0.227

Q: And the relative viability ([12]; first compound 0.04 µM)?
A: 0.429

Q: And the relative viability ([12]; first compound 0.1265 µM)?
A: 0.491

Q: What about the relative viability ([12]; first compound 0.4 µM) of the same molecule?
A: 0.366

Q: And the relative viability ([12]; first compound 1.265 µM)?
A: 0.448

Q: And the relative viability ([12]; first compound 4 µM)?
A: 0.334

Q: What about the relative viability ([13]; first compound 0.04 µM) of the same molecule?
A: 0.51

Q: And the relative viability ([13]; first compound 0.1265 µM)?
A: 0.609

Q: And the relative viability ([13]; first compound 0.4 µM)?
A: 0.559

Q: What about the relative viability ([13]; first compound 1.265 µM) of the same molecule?
A: 0.646

Q: And the relative viability ([13]; first compound 4 µM)?
A: 0.646

Q: What about the relative viability ([14]; first compound 0.1265 µM) of the same molecule?
A: 0.508

Q: And the relative viability ([14]; first compound 0.4 µM)?
A: 0.438

Q: What about the relative viability ([14]; first compound 1.265 µM) of the same molecule?
A: 0.53

Q: And the relative viability ([14]; first compound 4 µM)?
A: 0.399

Q: What about the relative viability ([15]; first compound 0.04 µM) of the same molecule?
A: 0.379

Q: And the relative viability ([15]; first compound 0.1265 µM)?
A: 0.296

Q: What about the relative viability ([15]; first compound 0.4 µM) of the same molecule?
A: 0.395

Q: And the relative viability ([15]; first compound 1.265 µM)?
A: 0.332

Q: What about the relative viability ([15]; first compound 4 µM) of the same molecule?
A: 0.277

Q: And the relative viability ([16]; first compound 0.04 µM)?
A: 0.31

Q: And the relative viability ([16]; first compound 0.1265 µM)?
A: 0.315

Q: What about the relative viability ([16]; first compound 0.4 µM) of the same molecule?
A: 0.303

Q: What about the relative viability ([16]; first compound 1.265 µM) of the same molecule?
A: 0.318

Q: And the relative viability ([16]; first compound 4 µM)?
A: 0.215

Q: What about the relative viability ([17]; first compound 0.04 µM) of the same molecule?
A: 0.614

Q: What about the relative viability ([17]; first compound 0.1265 µM) of the same molecule?
A: 0.829

Q: And the relative viability ([17]; first compound 0.4 µM)?
A: 0.679

Q: What about the relative viability ([17]; first compound 1.265 µM) of the same molecule?
A: 0.681

Q: What about the relative viability ([17]; first compound 4 µM) of the same molecule?
A: 0.522

Q: What about the relative viability ([18]; first compound 0.04 µM) of the same molecule?
A: 0.495

Q: What about the relative viability ([18]; first compound 0.1265 µM) of the same molecule?
A: 0.514

Q: What about the relative viability ([18]; first compound 0.4 µM) of the same molecule?
A: 0.513

Q: What about the relative viability ([18]; first compound 1.265 µM) of the same molecule?
A: 0.482

Q: What about the relative viability ([18]; first compound 4 µM) of the same molecule?
A: 0.401

Q: What about the relative viability ([19]; first compound 0.04 µM) of the same molecule?
A: 0.101

Q: What about the relative viability ([19]; first compound 0.1265 µM) of the same molecule?
A: 0.16

Q: What about the relative viability ([19]; first compound 0.4 µM) of the same molecule?
A: 0.0782

Q: What about the relative viability ([19]; first compound 1.265 µM) of the same molecule?
A: 0.157

Q: And the relative viability ([19]; first compound 4 µM)?
A: 0.212

Q: And the relative viability ([20]; first compound 0.04 µM)?
A: 0.69

Q: What about the relative viability ([20]; first compound 0.1265 µM) of the same molecule?
A: 0.702

Q: And the relative viability ([20]; first compound 0.4 µM)?
A: 0.636

Q: What about the relative viability ([20]; first compound 1.265 µM) of the same molecule?
A: 0.494

Q: What about the relative viability ([20]; first compound 4 µM) of the same molecule?
A: 0.266

Q: And the relative viability ([21]; first compound 0.04 µM)?
A: 0.302

Q: And the relative viability ([21]; first compound 0.1265 µM)?
A: 0.262

Q: What about the relative viability ([21]; first compound 0.4 µM) of the same molecule?
A: 0.29

Q: And the relative viability ([21]; first compound 1.265 µM)?
A: 0.219

Q: And the relative viability ([21]; first compound 4 µM)?
A: 0.0916

Q: What about the relative viability ([22]; first compound 0.04 µM) of the same molecule?
A: 0.204

Q: And the relative viability ([22]; first compound 0.1265 µM)?
A: 0.19

Q: What about the relative viability ([22]; first compound 0.4 µM) of the same molecule?
A: 0.153

Q: And the relative viability ([22]; first compound 1.265 µM)?
A: 0.167

Q: What about the relative viability ([22]; first compound 4 µM) of the same molecule?
A: 0.157

Q: What about the relative viability ([23]; first compound 0.04 µM) of the same molecule?
A: 0.835

Q: What about the relative viability ([23]; first compound 0.1265 µM) of the same molecule?
A: 1.08

Q: And the relative viability ([23]; first compound 0.4 µM)?
A: 0.928

Q: And the relative viability ([23]; first compound 1.265 µM)?
A: 0.771

Q: And the relative viability ([23]; first compound 4 µM)?
A: 0.9

Q: And the relative viability ([24]; first compound 0.04 µM)?
A: 0.319

Q: And the relative viability ([24]; first compound 0.1265 µM)?
A: 0.341

Q: And the relative viability ([24]; first compound 0.4 µM)?
A: 0.336

Q: And the relative viability ([24]; first compound 1.265 µM)?
A: 0.334

Q: And the relative viability ([24]; first compound 4 µM)?
A: 0.352

Reference: the supplement of paper PMC10307832
